Test results published in patent publication US6358921B1, “Antimicrobial peptide compositions and method” (priority 1996, dated 2002).

How the values were obtained:
P. aeruginosa H187 = assay type: cell-based, Pseudomonas aeruginosa; settings: H187
Description: (§1) The following bacterial strains were utilized: Escherichia coli UB1005 (wt) and its antibiotic supersusceptible derivative DC2 (Clark, 1984); Excherichia coli SC9251 and its polymixin B rasistant mutant pmrA SC9252 (Peterson, et al., 1987) Pseudomonas aeruginosa H187 (wt) (Angus, et al., 1987) and its antibiotic-sensitive derivative H188 (Zimmerman, W, Antimicrob. Agents Chemother. 18: 94-100, 1980); methicillin sensitive Staphylococcus aureus K147 (Kreiswirth, et al., 1983); Staphylococcus aureus SAP0017, a methicillin resistant clinical isolate from Dr. A. Chow (University of British Columia); Bacillus subtilis, an environmental wt lab strain. Enterococcus faecalis are ATCC 29212 cells and Staphylococcus epidermidis was a clinical isolate from Dr. D. Speert (University of British Columbia). Antifungal activity was tested using a clinical lab isolate of Candida albicans. Salmonella typhinurium C57 and C610 (Fields, P.I., et al., Science 243: 1059-1062 (1989) Corynebacterium xerosis was an environmental isolate (University of British Columbia).
(§2) It is now apparent that agar-based assays severely underestimate antifungal activity as well as activity against gram negative microorganisms (Kondejewski, et al., 1996). Consequently, in the studies reported herein, a liquid-broth method was used to measure the antibiotic properties of the peptides. […] Briefly, cells were grown overnight at 37° C. in LB and diluted in the same medium. Serial dilutions of antibiotics were added to the microtitre plates in a volume of 100 μL followed by 10 μL of bacteria to give a final inoculum of 5×10^5 CFU/mL. Plates were incubated at 37° C. overnight and MICs determined as the lowest antibiotic concentration that inhibited growth.
(§3) The results from antimicrobial and hemolytic assays are combined to provide a “Therapeutic Index” (TI) for each peptide with respect to individual microorganisms. As reported herein, the TI is calculated as the hemolytic activity divided by the antimicrobial activity. The TI thus is a measure of specificity of the particular peptide for microbial membranes as opposed to human blood cell membranes. In the present studies, antimicrobial activities are reported as minimum inhibitory concentrations (MIC)—the lowest concentration of peptide (μg/ml) found to inhibit growth of the particular microbe. Hemolytic activity is reported as the concentration of peptide that effected complete lysis of blood cells after four hours. Thus, in the context of the present invention high TI values indicate microbial specificity and relative lack of toxicity.

P. aeruginosa H188 = assay type: cell-based, Pseudomonas aeruginosa; settings: H188
Description: as §1
as §2, with “growth. […]” for “growth.”

E. coli UB1005 = assay type: cell-based, Escherichia coli; settings: UB1005
Description: as §1
as §2, with “growth. […]” for “growth.”

E. coli DC2 = assay type: cell-based, Escherichia coli; settings: DC2
Description: as §1, §2, §3

S. typhinurium C610 = assay type: cell-based, Salmonella typhinurium
Description: as §1
as §2, with “growth. […]” for “growth.”

S. aureus K147 = assay type: cell-based, Staphylococcus aureus
Description: as §1, §2, §3

S. aureus SAP0017 = assay type: cell-based, Staphylococcus aureus
Description: as §1, §2, §3

S. epidermidis = assay type: cell-based, Staphylococcus epidermidis
Description: as §1
as §2, with “growth. […]” for “growth.”

B. subtilis = assay type: cell-based, Bacillus subtilis
Description: as §1
as §2, with “growth. […]” for “growth.”

E. faecalis = assay type: cell-based, Enterococcus faecalis
Description: as §1
as §2, with “growth. […]” for “growth.”

C. xeroses = assay type: cell-based, Corynebacterium xerosis
Description: as §1
as §2, with “growth. […]” for “growth.”

[1] = Displacement of dansyl-polymyxin from LPS; assay type: binding, P. aeruginosa; settings: read-out: LPS binding affinity: peptide concentration to displace 50% of dansyl-polymyxin B from LPS; Tables 1, 4, 7
Description: In order to determine whether ring size affects the interaction between the peptide and bacterial membranes, we studied the interaction between the GS ring analogs and bacterial lipopolysaccharide (LPS). It has been shown previously that dansyl-polymixin (DPX) is a good probe for cationic binding sites on both purified LPS as well as whole bacterial cells (Example 8; Moore, et al., 1986; Sawyer, et al., 1988; Hancock, 1981). […] The LPS binding activity of various GS analogs was investigated, as discussed above.
Dansyl-polymixin (DPX) displacement from P. aeruginosa LPS was measured as described (Moore, et al., 1986). Briefly, peptides were titrated into cuvettes containing 3 μg of LPS per mL and 2.5 μM dansyl-polymixin (approximately 90% saturation of LPS binding sites) in 1 mL of 5 mM sodium HEPES buffer, pH 7.0, and the decrease in fluorescence recorded. A plot of the inverse of the percent inhibition as a function of the inverse of inhibitor concentration gave a value for I50, the inhibitor concentration resulting in 50% displacement of dansyl-polymixin from LPS (−1/× intercept).

C. Albicans = assay type: cell-based, Candida albicans
Description: as §1
as §2, with “growth. […]” for “growth.”

S. typhinurium C587 = assay type: cell-based, Salmonella typhinurium
Description: as §1
as §2, with “growth. […]” for “growth.”

Row | Compound | Minimum Inhibitory Concentration (activity) (P. aeruginosa H187) | Minimum Inhibitory Concentration (activity) (P. aeruginosa H188) | Minimum Inhibitory Concentration (activity) (E. coli UB1005) | Minimum Inhibitory Concentration (activity) (E. coli DC2) | Minimum Inhibitory Concentration (activity) (S. typhinurium C610) | Minimum Inhibitory Concentration (activity) (S. aureus K147) | Minimum Inhibitory Concentration (activity) (S. aureus SAP0017) | Minimum Inhibitory Concentration (activity) (S. epidermidis) | Minimum Inhibitory Concentration (activity) (B. subtilis) | Minimum Inhibitory Concentration (activity) (E. faecalis) | Minimum Inhibitory Concentration (activity) (C. xeroses) | IC50 [1] | Minimum Inhibitory Concentration (activity) (C. Albicans) | Minimum Inhibitory Concentration (activity) (S. typhinurium C587)
1 | CC(C)C[C@@H]1NC(=O)[C@H](CCCCN)NC(=O)[C@H](C(C)C)NC(=O)[C@@H]2CCCN2C(=O)[C@@H](Cc2ccc(O)cc2)NC(=O)[C@H](CC(C)C)NC(=O)[C@H](CCCCN)NC(=O)[C@H](C(C)C)NC(=O)[C@H](CCCCN)NC(=O)[C@H](CC(C)C)NC(=O)[C@@H]2CCCN2C(=O)[C@@H](Cc2ccc(O)cc2)NC(=O)[C@H](C(C)C)NC(=O)[C@@H](CCCCN)NC1=O [GS14K4] | 25 µg/mL | 3.1 µg/mL | 6.2 µg/mL | 3.1 µg/mL | 4 µg/mL | 100 µg/mL | 50 µg/mL | 2 µg/mL | 25 µg/mL | 1.5 µg/mL | 1.5 µg/mL | 93 µM | – | –
2 | CC(C)C[C@@H]1NC(=O)[C@H](CCCCN)NC(=O)[C@H](C(C)C)NC(=O)[C@@H]2CCCN2C(=O)[C@@H](Cc2ccc(O)cc2)NC(=O)[C@H](CC(C)C)NC(=O)[C@@H](CCCCN)NC(=O)[C@H](C(C)C)NC(=O)[C@H](CCCCN)NC(=O)[C@H](CC(C)C)NC(=O)[C@@H]2CCCN2C(=O)[C@@H](Cc2ccc(O)cc2)NC(=O)[C@H](C(C)C)NC(=O)[C@H](CCCCN)NC1=O [GS14K11] | 37 µg/mL | 5 µg/mL | 6.2 µg/mL | 3.1 µg/mL | 6.2 µg/mL | 25 µg/mL | 25 µg/mL | 3.1 µg/mL | 25 µg/mL | 1.5 µg/mL | 0.8 µg/mL | 50 µM | 6.2 µg/mL | –
3 | CC(C)C[C@@H]1NC(=O)[C@H](CCCCN)NC(=O)[C@H](C(C)C)NC(=O)[C@@H]2CCCN2C(=O)[C@@H](Cc2ccc(O)cc2)NC(=O)[C@H](CC(C)C)NC(=O)[C@H](CCCCN)NC(=O)[C@H](C(C)C)NC(=O)[C@H](CCCCN)NC(=O)[C@@H](CC(C)C)NC(=O)[C@@H]2CCCN2C(=O)[C@@H](Cc2ccc(O)cc2)NC(=O)[C@H](C(C)C)NC(=O)[C@H](CCCCN)NC1=O [GS14L8] | 37 µg/mL | 3.1 µg/mL | 6.2 µg/mL | 3.1 µg/mL | 6.2 µg/mL | 50 µg/mL | 25 µg/mL | 3.1 µg/mL | – | 1.5 µg/mL | 0.8 µg/mL | 62 µM | 6.2 µg/mL | –
4 | CC(C)C[C@@H]1NC(=O)[C@H](CCCCN)NC(=O)[C@H](C(C)C)NC(=O)[C@@H]2CCCN2C(=O)[C@@H](Cc2ccc(O)cc2)NC(=O)[C@H](CC(C)C)NC(=O)[C@H](CCCCN)NC(=O)[C@H](C(C)C)NC(=O)[C@H](CCCCN)NC(=O)[C@H](CC(C)C)NC(=O)[C@@H]2CCCN2C(=O)[C@@H](Cc2ccc(O)cc2)NC(=O)[C@@H](C(C)C)NC(=O)[C@H](CCCCN)NC1=O [GS14V5] | 100 µg/mL | 62 µg/mL | 15 µg/mL | 3.1 µg/mL | – | 100 µg/mL | 50 µg/mL | 3.1 µg/mL | 200 µg/mL | 1.5 µg/mL | – | 33 µM | 6.2 µg/mL | 100 µg/mL
5 | CC(C)C[C@@H]1NC(=O)[C@H](CCCCN)NC(=O)[C@H](C(C)C)NC(=O)[C@@H]2CCCN2C(=O)[C@@H](Cc2ccc(O)cc2)NC(=O)[C@H](CC(C)C)NC(=O)[C@H](CCCCN)NC(=O)[C@@H](C(C)C)NC(=O)[C@H](CCCCN)NC(=O)[C@H](CC(C)C)NC(=O)[C@@H]2CCCN2C(=O)[C@@H](Cc2ccc(O)cc2)NC(=O)[C@H](C(C)C)NC(=O)[C@H](CCCCN)NC1=O [GS14V10] | >200 µg/mL | 200 µg/mL | 200 µg/mL | 3.1 µg/mL | 200 µg/mL | 200 µg/mL | 50 µg/mL | 3.1 µg/mL | – | 1.5 µg/mL | 0.8 µg/mL | 18 µM | 17 µg/mL | >200 µg/mL
6 | CC(C)C[C@@H]1NC(=O)[C@H](CCCCN)NC(=O)[C@H](C(C)C)NC(=O)[C@@H]2CCCN2C(=O)[C@@H](Cc2ccc(O)cc2)NC(=O)[C@H](CC(C)C)NC(=O)[C@H](CCCCN)NC(=O)[C@H](C(C)C)NC(=O)[C@H](CCCCN)NC(=O)[C@H](CC(C)C)NC(=O)[C@@H]2CCCN2C(=O)[C@H](Cc2ccc(O)cc2)NC(=O)[C@H](C(C)C)NC(=O)[C@H](CCCCN)NC1=O [GS14Y6] | 200 µg/mL | 50 µg/mL | 50 µg/mL | 3.1 µg/mL | 100 µg/mL | >200 µg/mL | >200 µg/mL | 6.2 µg/mL | >200 µg/mL | 3.1 µg/mL | 1 µg/mL | 20 µM | – | >200 µg/mL
